Laboratory results: US9340590B2 (priority 2011, dated 2016)
Read-outs that look alike come from different tables or passages of the source. Positions of bridges follow the written chain, without caps; N, C: chain ends. Non-standard residues stand in square brackets, D forms with d. Residues, ends and D or L forms follow the SMILES beside them. 2Nal = N[C@@H](Cc1ccc2ccccc2c1)C(=O)O; pGlu = O=C1CC[C@@H](C(=O)O)N1; Abu = CC[C@H](N)C(=O)O

Key:
Assay in all cases: cell-based
[1] = biological target: hNav1.7 (Homo sapiens, UniProt Q15858); type: cell-based; settings: IonWorks Quattro, read-out: IWQ Use Nav1.7
Sequence of hNav1.7 (Q15858 whole entry, looked up): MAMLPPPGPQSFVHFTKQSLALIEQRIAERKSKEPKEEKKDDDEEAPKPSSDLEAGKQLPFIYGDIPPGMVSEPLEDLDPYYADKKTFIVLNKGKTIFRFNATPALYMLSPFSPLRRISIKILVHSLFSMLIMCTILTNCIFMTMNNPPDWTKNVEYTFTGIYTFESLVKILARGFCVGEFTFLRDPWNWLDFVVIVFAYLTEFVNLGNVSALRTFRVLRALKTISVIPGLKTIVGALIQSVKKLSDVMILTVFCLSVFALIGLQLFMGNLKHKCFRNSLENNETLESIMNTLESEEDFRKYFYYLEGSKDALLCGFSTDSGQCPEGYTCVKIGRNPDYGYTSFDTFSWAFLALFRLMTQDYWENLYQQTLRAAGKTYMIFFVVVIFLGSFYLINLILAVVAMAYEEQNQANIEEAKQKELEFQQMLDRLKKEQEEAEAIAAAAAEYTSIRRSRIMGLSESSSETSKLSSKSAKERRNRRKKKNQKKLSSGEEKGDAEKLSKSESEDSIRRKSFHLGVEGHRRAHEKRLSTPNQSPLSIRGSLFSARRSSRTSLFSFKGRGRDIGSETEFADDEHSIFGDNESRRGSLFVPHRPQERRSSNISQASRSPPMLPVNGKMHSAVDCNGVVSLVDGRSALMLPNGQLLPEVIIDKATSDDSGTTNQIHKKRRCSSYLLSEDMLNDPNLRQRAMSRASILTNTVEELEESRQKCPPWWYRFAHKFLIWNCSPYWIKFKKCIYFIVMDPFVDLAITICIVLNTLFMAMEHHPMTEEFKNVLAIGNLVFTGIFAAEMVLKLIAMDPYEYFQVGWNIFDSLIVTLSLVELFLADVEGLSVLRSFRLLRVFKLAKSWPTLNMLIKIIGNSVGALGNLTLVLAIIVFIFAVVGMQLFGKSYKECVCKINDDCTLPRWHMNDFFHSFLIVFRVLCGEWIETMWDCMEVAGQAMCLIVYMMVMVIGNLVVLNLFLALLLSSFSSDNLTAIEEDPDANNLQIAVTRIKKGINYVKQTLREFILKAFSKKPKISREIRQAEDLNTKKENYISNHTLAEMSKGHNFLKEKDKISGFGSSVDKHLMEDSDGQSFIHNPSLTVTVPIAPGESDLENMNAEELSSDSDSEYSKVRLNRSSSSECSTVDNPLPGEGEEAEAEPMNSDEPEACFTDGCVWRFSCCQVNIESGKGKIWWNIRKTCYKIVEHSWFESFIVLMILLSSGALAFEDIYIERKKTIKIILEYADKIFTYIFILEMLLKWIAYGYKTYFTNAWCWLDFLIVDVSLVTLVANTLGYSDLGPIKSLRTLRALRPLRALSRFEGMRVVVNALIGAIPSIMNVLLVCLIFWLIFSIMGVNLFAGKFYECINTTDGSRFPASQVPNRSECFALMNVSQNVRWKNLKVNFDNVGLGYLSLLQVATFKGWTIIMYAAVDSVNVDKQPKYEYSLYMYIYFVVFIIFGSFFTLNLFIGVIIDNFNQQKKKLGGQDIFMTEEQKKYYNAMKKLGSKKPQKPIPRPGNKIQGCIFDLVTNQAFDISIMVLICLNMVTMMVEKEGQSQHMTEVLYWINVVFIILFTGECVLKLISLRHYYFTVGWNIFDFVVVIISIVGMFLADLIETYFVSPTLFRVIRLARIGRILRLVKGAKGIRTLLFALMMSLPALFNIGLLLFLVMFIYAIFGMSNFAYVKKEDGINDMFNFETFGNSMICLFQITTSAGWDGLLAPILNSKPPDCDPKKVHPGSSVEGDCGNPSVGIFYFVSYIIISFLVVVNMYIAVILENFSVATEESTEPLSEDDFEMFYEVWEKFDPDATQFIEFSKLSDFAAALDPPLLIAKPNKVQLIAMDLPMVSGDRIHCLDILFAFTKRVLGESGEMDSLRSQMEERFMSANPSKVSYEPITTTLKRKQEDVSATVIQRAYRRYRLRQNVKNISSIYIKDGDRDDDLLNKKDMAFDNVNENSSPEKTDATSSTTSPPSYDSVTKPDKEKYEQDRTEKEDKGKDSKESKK

[2] = biological target: hNav1.5 (Homo sapiens, UniProt Q14524)
Sequence of hNav1.5 (Q14524 whole entry, looked up): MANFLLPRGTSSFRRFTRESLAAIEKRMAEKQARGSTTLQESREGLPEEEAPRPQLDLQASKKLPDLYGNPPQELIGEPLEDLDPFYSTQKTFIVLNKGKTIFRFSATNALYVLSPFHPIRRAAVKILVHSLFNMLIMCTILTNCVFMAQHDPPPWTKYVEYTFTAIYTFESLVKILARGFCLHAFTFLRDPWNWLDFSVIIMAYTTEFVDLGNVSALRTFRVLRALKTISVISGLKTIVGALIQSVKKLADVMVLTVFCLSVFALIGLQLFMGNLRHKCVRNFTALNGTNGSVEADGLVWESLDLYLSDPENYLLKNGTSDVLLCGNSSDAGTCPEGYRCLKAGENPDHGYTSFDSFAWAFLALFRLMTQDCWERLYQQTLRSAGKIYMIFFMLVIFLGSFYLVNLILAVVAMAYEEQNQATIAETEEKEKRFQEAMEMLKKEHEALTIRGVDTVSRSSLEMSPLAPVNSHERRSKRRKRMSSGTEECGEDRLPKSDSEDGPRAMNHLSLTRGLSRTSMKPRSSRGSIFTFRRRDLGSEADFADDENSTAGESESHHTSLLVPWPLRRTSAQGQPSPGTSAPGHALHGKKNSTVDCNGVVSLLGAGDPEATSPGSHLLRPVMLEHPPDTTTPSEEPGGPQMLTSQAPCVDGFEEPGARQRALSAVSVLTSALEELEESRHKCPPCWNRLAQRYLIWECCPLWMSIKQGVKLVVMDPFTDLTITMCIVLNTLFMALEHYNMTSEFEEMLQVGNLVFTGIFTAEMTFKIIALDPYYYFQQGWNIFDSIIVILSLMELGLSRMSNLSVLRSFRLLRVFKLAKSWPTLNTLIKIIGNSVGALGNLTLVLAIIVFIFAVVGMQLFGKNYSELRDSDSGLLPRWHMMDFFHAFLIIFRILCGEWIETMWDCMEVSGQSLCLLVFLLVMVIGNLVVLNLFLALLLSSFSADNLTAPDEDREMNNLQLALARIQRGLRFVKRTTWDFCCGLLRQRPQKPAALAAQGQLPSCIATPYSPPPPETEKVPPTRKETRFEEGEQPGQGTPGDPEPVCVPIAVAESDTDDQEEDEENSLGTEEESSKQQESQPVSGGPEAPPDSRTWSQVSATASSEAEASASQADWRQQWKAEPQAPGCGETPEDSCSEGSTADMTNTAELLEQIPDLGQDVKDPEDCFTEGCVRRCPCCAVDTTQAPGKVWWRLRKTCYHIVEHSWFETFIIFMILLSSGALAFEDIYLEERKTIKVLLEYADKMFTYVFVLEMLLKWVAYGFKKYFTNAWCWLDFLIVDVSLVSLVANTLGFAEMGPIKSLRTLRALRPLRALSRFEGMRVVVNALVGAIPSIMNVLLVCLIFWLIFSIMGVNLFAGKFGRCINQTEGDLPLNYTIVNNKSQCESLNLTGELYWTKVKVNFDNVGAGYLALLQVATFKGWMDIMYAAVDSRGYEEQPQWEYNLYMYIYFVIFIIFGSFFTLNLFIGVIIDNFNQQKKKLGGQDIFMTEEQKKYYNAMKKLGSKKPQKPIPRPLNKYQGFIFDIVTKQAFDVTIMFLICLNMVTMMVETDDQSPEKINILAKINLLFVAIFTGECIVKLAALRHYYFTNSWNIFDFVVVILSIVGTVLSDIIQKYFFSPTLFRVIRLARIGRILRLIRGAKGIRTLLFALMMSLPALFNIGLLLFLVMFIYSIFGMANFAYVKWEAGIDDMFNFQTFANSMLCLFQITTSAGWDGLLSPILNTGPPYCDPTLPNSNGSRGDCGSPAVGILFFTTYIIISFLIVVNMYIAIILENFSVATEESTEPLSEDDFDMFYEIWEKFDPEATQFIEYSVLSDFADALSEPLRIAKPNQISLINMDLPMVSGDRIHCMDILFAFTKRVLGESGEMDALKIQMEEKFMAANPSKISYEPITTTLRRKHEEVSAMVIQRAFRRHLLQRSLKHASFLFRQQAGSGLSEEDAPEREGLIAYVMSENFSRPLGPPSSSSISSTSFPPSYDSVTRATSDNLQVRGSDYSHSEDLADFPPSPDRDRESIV

[3] = biological target: hNav1.3 (Homo sapiens, UniProt Q9NY46); settings: IonWorks Quattro, read-out: IWQ Use Nav1.3
[4] = clamped to −110 mV, depolarized to −10 mV, 5 min after compound, n=2
[5] = IonWorks Quattro, clamped to −110 mV, depolarized to −10 mV, 5 min after compound, n=2, read-out: IWQ Use Nav1.5

Compound `CC[C@@H]1NC(=O)[C@@H]2CSSC[C@@H](C(=O)N[C@@H](CCCCN)C(=O)N[C@@H](Cc3ccc(O)cc3)C(=O)N[C@H](C(=O)N[C@@H](Cc3ccccc3)C(N)=O)C(C)C)NC(=O)[C@H](Cc3c[nH]c4ccccc34)NC(=O)[C@H](CCCCN)NC(=O)[C@H](Cc3c[nH]cn3)NC(=O)[C@H]([C@@H](C)O)NC(=O)[C@H](CCCNC(=N)N)NC(=O)[C@H](CO)NC(=O)[C@H](CSSC[C@H](NC(=O)[C@H](CCCCN)NC(=O)[C@H](CCCNC(=N)N)NC(=O)[C@H](CCSC)NC(=O)[C@H](Cc3ccccc3)NC(=O)CNC(=O)[C@H](CC(C)C)NC(=O)[C@H](CC)NC(=O)[C@@H](N)CC(=O)O)C(=O)N[C@@H]([C@@H](C)CC)C(=O)N3CCC[C@H]3C(=O)N[C@@H](CC(=O)O)C(=O)N[C@@H](CC(N)=O)C(=O)N[C@@H](CC(=O)O)C(=O)N[C@@H](CCCCN)C(=O)N2)NC(=O)[C@H](C(C)C)NC(=O)[C@H](CC(C)C)NC(=O)[C@H](CC(N)=O)NC(=O)[C@@H]2CCCN2C(=O)[C@H](CCCNC(=N)N)NC1=O` [SEQ ID NO: 125, [2-Abu-2,17]GpTx-1] (H-D[Abu]LGFMRKCIPDNDKC[Abu]RPNLVCSRTHKWCKYVF-NH2; disulfide 9-23, 16-30) has an IC50 ([1]; use-dependent block, hNav1.7) of 300 nM, an IC50 ([2]; IonWorks Quattro, use-dependent block, hNav1.5, read-out: IWQ Use Nav1.5) of 9.51 µM and an IC50 ([3]; use-dependent block, hNav1.3) of 240 nM.

Compound `CC[C@H](C)[C@@H]1NC(=O)[C@@H]2CSSC[C@@H]3NC(=O)[C@H](C(C)C)NC(=O)[C@H](CC(C)C)NC(=O)[C@H](CC(N)=O)NC(=O)[C@@H]4CCCN4C(=O)[C@H](CCCNC(=N)N)NC(=O)[C@H](CSSC[C@H](NC(=O)[C@@H](N)CC(=O)O)C(=O)N[C@@H](CC(C)C)C(=O)NCC(=O)N[C@@H](Cc4ccc5ccccc5c4)C(=O)N[C@@H](CCSC)C(=O)N[C@@H](CCCNC(=N)N)C(=O)N[C@@H](CCCCN)C(=O)N2)NC(=O)[C@H](CSSC[C@@H](C(=O)N[C@@H](CCCCN)C(=O)N[C@@H](Cc2ccc(O)cc2)C(=O)N[C@H](C(=O)N[C@@H](Cc2ccccc2)C(N)=O)C(C)C)NC(=O)[C@H](Cc2c[nH]c4ccccc24)NC(=O)[C@H](CCCCN)NC(=O)[C@H](Cc2c[nH]cn2)NC(=O)[C@H]([C@@H](C)O)NC(=O)[C@H](CCCNC(=N)N)NC(=O)[C@H](CO)NC3=O)NC(=O)[C@H](CCCCN)NC(=O)[C@H](CC(=O)O)NC(=O)[C@H](CC(N)=O)NC(=O)[C@H](CC(=O)O)NC(=O)[C@@H]2CCCN2C1=O` [SEQ ID NO: 128] has an IC50 [1, 4] of 110 nM, an IC50 [2, 5] of 6.11 µM and an IC50 [3, 4] of 50 nM.

`CC[C@H](C)[C@@H]1NC(=O)[C@@H]2CSSC[C@@H]3NC(=O)[C@H](C(C)C)NC(=O)[C@H](CC(C)C)NC(=O)[C@H](CC(N)=O)NC(=O)[C@@H]4CCCN4C(=O)[C@H](CCCNC(=N)N)NC(=O)[C@H](CSSC[C@H](NC(=O)[C@@H](N)CC(=O)O)C(=O)N[C@@H](CC(C)C)C(=O)NCC(=O)N[C@@H](Cc4ccccc4)C(=O)N[C@@H](CCSC)C(=O)N[C@@H](CCCNC(=N)N)C(=O)N[C@@H](CCCCN)C(=O)N2)NC(=O)[C@H](CSSC[C@@H](C(=O)N[C@@H](CCCCN)C(=O)N[C@@H](Cc2ccc(O)cc2)C(=O)N[C@H](C(=O)N[C@@H](Cc2ccccc2)C(N)=O)C(C)C)NC(=O)[C@H](Cc2ccc4ccccc4c2)NC(=O)[C@H](CCCCN)NC(=O)[C@H](Cc2c[nH]cn2)NC(=O)[C@H]([C@@H](C)O)NC(=O)[C@H](CCCNC(=N)N)NC(=O)[C@H](CO)NC3=O)NC(=O)[C@H](CCCCN)NC(=O)[C@H](CC(=O)O)NC(=O)[C@H](CC(N)=O)NC(=O)[C@H](CC(=O)O)NC(=O)[C@@H]2CCCN2C1=O` [SEQ ID NO: 129, [2-Nal29]GpTx-1] (H-DCLGFMRKCIPDNDKCCRPNLVCSRTHK[2Nal]CKYVF-NH2; disulfide 2-17, 9-23, 16-30) showed an IC50 ([1]; Table 24, use, […]) of 580 nM, an IC50 ([2]; Table 24, IonWorks Quattro, use, […], read-out: IWQ Use Nav1.5) of 11.7 µM and an IC50 ([3]; Table 24, use, […]) of 730 nM.

In the case of `CC[C@H](C)[C@@H]1NC(=O)[C@@H]2CSSC[C@@H]3NC(=O)[C@H](C(C)C)NC(=O)[C@H](CC(C)C)NC(=O)[C@H](CC(N)=O)NC(=O)[C@@H]4CCCN4C(=O)[C@H](CCCNC(=N)N)NC(=O)[C@H](CSSC[C@H](NC(=O)[C@@H](N)CC(=O)O)C(=O)N[C@@H](CC(C)C)C(=O)NCC(=O)N[C@@H](Cc4ccccc4)C(=O)N[C@@H](CCSC)C(=O)N[C@@H](CCCNC(=N)N)C(=O)N[C@@H](CCCCN)C(=O)N2)NC(=O)[C@H](CSSC[C@@H](C(=O)N[C@@H](CCCCN)C(=O)N[C@@H](Cc2ccc(O)cc2)C(=O)N[C@H](C(=O)N[C@@H](Cc2ccccc2)C(N)=O)C(C)C)NC(=O)[C@H](Cc2c[nH]c4ccccc24)NC(=O)[C@H](CCCCN)NC(=O)[C@H](Cc2cnc[nH]2)NC(=O)[C@H](CCC(=O)O)NC(=O)[C@H](CCCNC(=N)N)NC(=O)[C@H](CO)NC3=O)NC(=O)[C@H](CCCCN)NC(=O)[C@H](CC(=O)O)NC(=O)[C@H](CC(N)=O)NC(=O)[C@H](CC(=O)O)NC(=O)[C@@H]2CCCN2C1=O` [SEQ ID NO: 152, [Glu26]GpTx-1] (H-DCLGFMRKCIPDNDKCCRPNLVCSREHKWCKYVF-NH2; disulfide 2-17, 9-23, 16-30), the IC50 ([1]; Table 22, use, […]) is reported as 680 nM, the IC50 ([2]; IWQ Use Nav1.5 (μM)) is reported as 17.2 µM and the IC50 ([3]; Table 22, use, […]) is reported as 710 nM.

`CC[C@H](C)[C@@H]1NC(=O)[C@@H]2CSSC[C@@H]3NC(=O)[C@H](C(C)C)NC(=O)[C@H](CC(C)C)NC(=O)[C@H](CC(N)=O)NC(=O)[C@@H]4CCCN4C(=O)[C@H](CCCNC(=N)N)NC(=O)[C@H](CSSC[C@H](NC(=O)[C@@H](N)CC(=O)O)C(=O)N[C@@H](CC(C)C)C(=O)NCC(=O)N[C@@H](Cc4ccccc4)C(=O)N[C@@H](CCCCN)C(=O)N[C@@H](CCCNC(=N)N)C(=O)N[C@@H](CCCCN)C(=O)N2)NC(=O)[C@H](CSSC[C@@H](C(=O)N[C@@H](CCCCN)C(=O)N[C@@H](Cc2ccc(O)cc2)C(=O)N[C@H](C(=O)N[C@@H](Cc2ccccc2)C(N)=O)C(C)C)NC(=O)[C@H](Cc2c[nH]c4ccccc24)NC(=O)[C@H](CCCCN)NC(=O)[C@H](Cc2cnc[nH]2)NC(=O)[C@H]([C@@H](C)O)NC(=O)[C@H](CCCNC(=N)N)NC(=O)[C@H](CO)NC3=O)NC(=O)[C@H](CCCCN)NC(=O)[C@H](CC(=O)O)NC(=O)[C@H](CC(N)=O)NC(=O)[C@H](CC(=O)O)NC(=O)[C@@H]2CCCN2C1=O` [SEQ ID NO: 154] (H-DCLGFKRKCIPDNDKCCRPNLVCSRTHKWCKYVF-NH2; disulfide 2-17, 9-23, 16-30) showed an IC50 [1, 4] of 14500 nM, an IC50 [2, 5] of 13.9 µM and an IC50 [3, 4] of 8490 nM.

Compound `CC[C@H](C)[C@@H]1NC(=O)[C@@H]2CSSC[C@@H]3NC(=O)[C@H](C(C)C)NC(=O)[C@H](CC(C)C)NC(=O)[C@H](CC(N)=O)NC(=O)[C@@H]4CCCN4C(=O)[C@H](CCCNC(=N)N)NC(=O)[C@H](CSSC[C@H](NC(=O)[C@@H](N)CC(=O)O)C(=O)N[C@@H](CC(C)C)C(=O)NCC(=O)N[C@@H](Cc4ccccc4)C(=O)N[C@@H](CCSC)C(=O)N[C@@H](CCCNC(=N)N)C(=O)N[C@@H](CCCCN)C(=O)N2)NC(=O)[C@H](CSSC[C@@H](C(=O)N[C@@H](CCCCN)C(=O)N[C@@H](Cc2ccc(O)cc2)C(=O)N[C@H](C(=O)N[C@@H](Cc2ccccc2)C(N)=O)C(C)C)NC(=O)[C@H](Cc2c[nH]c4ccccc24)NC(=O)[C@H](CCCCN)NC(=O)[C@H](Cc2cnc[nH]2)NC(=O)[C@H]([C@@H](C)O)NC(=O)[C@H](CCCNC(=N)N)NC(=O)[C@H](CO)NC3=O)NC(=O)[C@H](CCCCN)NC(=O)[C@H](CC(=O)O)NC(=O)[C@H](CC(N)=O)NC(=O)[C@H](CC(=O)O)NC(=O)[C@H](Cc2c[nH]c3ccccc23)NC1=O` [SEQ ID NO: 171, [Trp11]GpTx-1] (H-DCLGFMRKCIWDNDKCCRPNLVCSRTHKWCKYVF-NH2; disulfide 2-17, 9-23, 16-30) has an IC50 ([1]; Use) of 70 nM, an IC50 ([2]; IonWorks Quattro, Use, read-out: IWQ Use Nav1.5) of 9.5 µM and an IC50 ([3]; Use) of 40 nM.

Compound `CC[C@H](C)[C@@H]1NC(=O)[C@@H]2CSSC[C@@H]3NC(=O)[C@H](C(C)C)NC(=O)[C@H](CC(C)C)NC(=O)[C@H](CC(N)=O)NC(=O)[C@@H]4CCCN4C(=O)[C@H](CCCNC(=N)N)NC(=O)[C@H](CSSC[C@H](NC(=O)[C@@H]4CCC(=O)N4)C(=O)N[C@@H](CC(C)C)C(=O)NCC(=O)N[C@@H](Cc4ccccc4)C(=O)N[C@@H](CCSC)C(=O)N[C@@H](CCCNC(=N)N)C(=O)N[C@@H](CCCCN)C(=O)N2)NC(=O)[C@H](CSSC[C@@H](C(=O)N[C@@H](CCCCN)C(=O)N[C@@H](Cc2ccc(O)cc2)C(=O)N[C@H](C(=O)N[C@@H](Cc2ccccc2)C(N)=O)C(C)C)NC(=O)[C@H](Cc2c[nH]c4ccccc24)NC(=O)[C@H](CCCCN)NC(=O)[C@H](Cc2c[nH]cn2)NC(=O)[C@H]([C@@H](C)O)NC(=O)[C@H](CCCNC(=N)N)NC(=O)[C@H](CO)NC3=O)NC(=O)[C@H](CCCCN)NC(=O)[C@H](CC(=O)O)NC(=O)[C@H](CC(N)=O)NC(=O)[C@H](CC(=O)O)NC(=O)[C@@H]2CCCN2C1=O` [SEQ ID NO: 188] ([pGlu]CLGFMRKCIPDNDKCCRPNLVCSRTHKWCKYVF-NH2; disulfide 2-17, 9-23, 16-30) has an IC50 [1, 4] of 170 nM, an IC50 [2, 5] of 10.7 µM and an IC50 [3, 4] of 110 nM.
